Experimental data published in patent US5476944A, “Derivatives of cyclic phenolic thioethers” (G. D. Searle & Co., priority 1994, dated 1995).

How the values were obtained:
cellular COX-II = target: T1, cellular COX-II (Homo sapiens, UniProt P35354); assay: Cellular COX-II Assay (Cell Fibroblast Assay), IL-1 stimulated human fetal dermal fibroblasts, PGE2; assay type: cell-based; conditions: IL-1 beta stimulated human fetal dermal fibroblasts
T1 construct: stimulated human fetal dermal fibroblasts (HFDF, derived from primary cell cultures); endogenous in cells; host or cells: human fetal dermal fibroblasts (HFDF), primary, stimulated with IL-1 beta
T1 sequence (P35354 18-604): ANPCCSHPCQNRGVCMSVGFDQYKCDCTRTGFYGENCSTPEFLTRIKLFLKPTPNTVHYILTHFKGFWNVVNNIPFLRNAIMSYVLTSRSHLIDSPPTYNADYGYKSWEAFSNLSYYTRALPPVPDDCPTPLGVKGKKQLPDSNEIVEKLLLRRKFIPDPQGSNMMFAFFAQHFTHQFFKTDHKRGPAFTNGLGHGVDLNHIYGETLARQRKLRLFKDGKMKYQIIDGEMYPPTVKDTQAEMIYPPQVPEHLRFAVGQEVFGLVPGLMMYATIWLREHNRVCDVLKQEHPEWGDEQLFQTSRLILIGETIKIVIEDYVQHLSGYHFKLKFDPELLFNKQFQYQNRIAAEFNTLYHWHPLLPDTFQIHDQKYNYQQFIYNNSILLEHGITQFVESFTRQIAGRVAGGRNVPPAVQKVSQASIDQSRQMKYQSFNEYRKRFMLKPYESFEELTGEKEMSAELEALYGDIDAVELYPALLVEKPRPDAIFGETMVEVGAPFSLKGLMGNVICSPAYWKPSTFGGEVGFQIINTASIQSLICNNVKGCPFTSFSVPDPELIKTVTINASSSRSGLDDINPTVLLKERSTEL
Protocol: The compounds of the invention are evaluated with respect to the inhibition of cellular COX-II in vitro according to the following Cellular COX-II Assay (Cell Fibroblast Assay).
Cellular COX-II Assay (Cell Fibroblast Assay)
Inhibition of cellular COX-II by test compounds is determined using stimulated human fetal dermal fibroblasts (HFDF, derived from primary cell cultures). Fibroblasts are cultured in microtiter wells at 1.5×10^4 cells/well in Dulbecco's Modified Eagle's Media (DMEM)(Gibco/BRL, Gaithersburg, Md. Sigma Chemical Co., St. Louis, Mo.) containing 4500 mg glucose/L, 100 units penicillin G/ml and 0.1 mg streptomycin/ml, 4 mM L-glutamine, 25 mM Hepes and 10% Fetal Bovine Serum (Gibco/BRL, Gaithersburg, Md. Bioproducts For Science, Inc., Indianapolis,Ind.). Following a 3-day incubation at 37° C., the culture media is removed by aspiration using low vacuum, and the cells are stimulated overnight with medium containing human recombinant IL-1 (interleukin-1) beta (1 ng/ml)(Cistron, Pine Brook, N.J.). The next day, the fibroblasts are washed with Phosphate Buffered Saline, and 185 μl of DMEM is added to each well. The cells are placed in a 37° C. incubator for 15 minutes. Compounds are then added to the cells using seven half-log dilutions in duplicate determinations. Cells are incubated with test compounds at 37° C. for 30 minutes. The COX-II substrate arachidonic acid (20 μM; Nu-Chek-Prep Inc., Elysian, Minn.) is then added to the cell cultures and the plates are incubated for 10 minutes at 37° C. Supernatants are collected and Prostaglandin E2 (PGE2) production is measured by an enzyme-linked immunosorbent assay (ELISA; antibodies produced by Cayman Chemical Company, Ann Arbor, Mich.). […] PG,60
The following is a description of how the activities of the compounds of the present invention may be determined.
A run of this assay consists of one (or more) plates, each containing, along with the standard (in row A), (1) two wells of unstimulated material (in col. 12), (2) five wells of stimulated material (in col. 12), (3) seven wells (one per concentration) for indomethacin (in col. 11), and (4) two wells at each of seven concentrations for five test compounds, one of which is a repeat of indomethacin. The response (ng/ml Eicosanoid) is estimated from the Standard curve and is highest at low concentrations and decreases as the concentration increases. If the response is plotted on the y-axis and the log of the concentration is plotted on the x-axis, the dose-response pattern for these assays is typically a symmetrical, sigmoidal shaped curve. If a full range of concentrations is used, the complete sigmoidal curve may be seen, starting with an upper asymptote, falling at some degree of steepness, and then leveling off at a lower asymptote. The IC50 is defined as the concentration corresponding to a response midway between the upper and lower plateaus. A theoretic "dose-response" model is used to estimate the IC50.
The procedure described below was used to define the minimum and maximum responses for the compounds on a plate.
The procedure uses information for indomethacin and the rest of the plate in defining the minimum and maximum response. The justification for doing this is as follows. Enough runs have been done with indomethacin to determine and use a range of concentrations such that the response to the lowest concentrations is on the upper plateau of the sigmoidal curve and the response to the highest concentrations is on the lower plateau of the sigmoidal curve. For the other compounds, if a response is measured which is less than the response for the unstimulated wells, then this response may be considered to be another estimate of a minimal response. Likewise, if a response is measured which is greater than the response for the stimulated wells, then this response may be considered to be another estimate of a maximal response. Based on this reasoning, the minimum is estimated as follows: […]

COX-II = target: T2, COX-II (Homo sapiens, UniProt P35354); assay: Human Enzyme Assay, recombinant COX-II (PGE2 ELISA); assay type: biochemical
T2 construct: made in house; host or cells: SF9 insect cells, recombinant baculovirus (pVL1393); coding fragment from Cayman Chemical
T2 sequence (P35354 18-604): T1 sequence (P35354 18-604)
Protocol: (§1) The compounds of the invention are evaluated with respect to COX-I and COX-II activity in vitro using an enzyme based assay according to the following assay procedure.
(§2) (a) Preparation of Recombinant COX Baculoviruses
(§3) A 2.0 kb fragment containing the coding region for either human or murine COX-I (Caymen Chemical, Ann Arbor, Mich.), or human or murine COX-II (Caymen Chemical, Ann Arbor, Mich.), was cloned into a BamH1 site of the baculovirus transfer vector pVL1393 (Invitrogen, Palo Alto, Calif.) to generate a baculovirus transfer vector. Recombinant baculoviruses were isolated by transfecting 4 μg of baculovirus transfer vector DNA into SF9 cells (2×10e8) (Invitrogen, Palo Alto, Calif.) along with 200 ng of linearized bacium by the phosphate method. See M. D. Summers et al., "A Manual of Methods for Baculovirus Vectors and Insect Cell Culture Procedure," TEXAS AGRICULTURE EXPERIMENTAL STATION BULLETIN, No. 1555 (1987), which is incorporated herein by reference. Recombinant viruses were purified by three rounds of plaque purification, and high titer (10e7-10e8 pfu/ml) stocks of virus were prepared. For large scale production, SF9 insect cells (Invitrogen, Palo Alto, Calif.) were infected in 10 liter fermentors (0.5×10^6 /ml) with the recombinant baculovirus stock, such that the multiplicity of infection was 0.1. After 72 hours, the cells were centrifuged and the cell pellet was homogenized in Tris/Sucrose (50 mM: 25%, pH 8.0) containing 1% CHAPS. The homogenate was centrifuged at 10,000×G for 30 minutes, and the resultant supernatant was stored at -80° C. before being assayed for COX activity.
(§4) b. Assay for COX-I and COX-II activity:
(§5) COX activity was assayed as PGE2 formed/μg protein/time using an ELISA (Caymen Chemical, Ann Arbor, Mich.) to detect the prostaglandin E2 released. CHAPS-solubilized insect cell membranes containing the appropriate COX enzyme were incubated in a potassium phosphate buffer (50 mM, pH 8.0) containing phenol (0.5 mM), and heme (1 μM) with the addition of arachidonic acid (10 μM). Compounds of the present invention were pre-incubated with the enzyme for 10-20 minutes prior to the addition of the COX-I and COX-II enzyme substrate arachidonic acid (10 μM). Any reaction between the arachidonic acid and the enzyme was stopped after ten minutes at 37° C./room temperature by transferring 40 μl of reaction mix into […] ELISA buffer and 25 μM indomethacin. The PGE2 formed was measured by standard ELISA technology (Cayman Chemical, Ann Arbor, Mich.).
(§6) The results for this assay, as well as for the next assay (COX-II Cell Fibroblast Assay) are expressed in terms of COX-I or II activity as an IC50 value (50% inhibitory concentration), as defined as the amount of prostaglandin E2 (PGE2) formed per protein per time in response to the enzyme substrate arachidonic acid.

COX-I = target: T3, COX-I (Homo sapiens, UniProt P23219); assay: Human Enzyme Assay, recombinant COX-I (PGE2 ELISA); assay type: biochemical
T3 construct: made in house; host or cells: SF9 insect cells, recombinant baculovirus (pVL1393); coding fragment from Cayman Chemical
Protocol: as §1, §2, §3, §4, §5, §6

T3 sequence (P23219 24-599): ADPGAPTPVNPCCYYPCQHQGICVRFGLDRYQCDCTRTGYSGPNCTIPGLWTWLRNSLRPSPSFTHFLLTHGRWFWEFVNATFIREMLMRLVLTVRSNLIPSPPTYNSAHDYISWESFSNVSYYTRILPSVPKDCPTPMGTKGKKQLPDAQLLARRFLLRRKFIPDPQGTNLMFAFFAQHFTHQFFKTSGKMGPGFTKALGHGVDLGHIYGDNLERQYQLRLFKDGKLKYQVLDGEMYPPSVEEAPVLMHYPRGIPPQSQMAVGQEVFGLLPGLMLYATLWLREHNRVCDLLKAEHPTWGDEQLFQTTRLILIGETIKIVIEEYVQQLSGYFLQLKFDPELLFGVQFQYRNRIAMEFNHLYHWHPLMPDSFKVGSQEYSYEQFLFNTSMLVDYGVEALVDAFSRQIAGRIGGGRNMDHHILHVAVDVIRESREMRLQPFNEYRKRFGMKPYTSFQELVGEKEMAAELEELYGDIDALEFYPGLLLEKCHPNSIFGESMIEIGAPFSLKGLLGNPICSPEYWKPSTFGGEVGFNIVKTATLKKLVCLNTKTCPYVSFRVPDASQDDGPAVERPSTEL

| Compound | IC50 (cellular COX-II) [nM] | IC50 (COX-II) [µM] | IC50 (COX-I) [µM] |
| --- | --- | --- | --- |
| CC(C)(C)c1cc(S[C@@H]2CCC[C@H]2OCC(=O)O)cc(C(C)(C)C)c1 (relative stereo) [Example 76, (±)trans-2-[[2-[[3,5-bis(1,1-dimethylethyl)phenyl]thio]cyclopentyl]oxy]acetic acid] | 5590 | > 100 | > 100 |
| CC(C)(C)c1ccc(O[C@@H]2CCC[C@H]2OCC(=O)O)c(C(C)(C)C)c1 (relative stereo) [Example 101, trans-2-[[2-[2,4-bis(1,1-dimethylethyl)phenoxy]cyclopentyl]oxy]acetic acid] | 840 | > 100 | > 100 |
| CC(C)(C)c1ccc(S[C@H]2CCC[C@H]2OCC(=O)O)c(C(C)(C)C)c1 (racemic) [Example 80, (±)cis-2-[[2-[[2,4-bis(1,1-dimethylethyl)phenyl]thio]cyclopentyl]oxy]acetic acid] | 602 | 0.937 | 28.5 |
| CC(C)(C)c1ccc(S[C@@H]2CCC[C@H]2OCC(=O)O)c(C(C)(C)C)c1 (racemic) [Example 81, (±)trans-2-[[2-[[2,4-bis(1,1-dimethylethyl)phenyl]-thio]cyclopentyl]oxy]acetic acid] | 438 | 1.43 | 94.6 |
| CC(C)(C)c1cc(S[C@@H]2CCCC[C@H]2OCC(=O)O)cc(C(C)(C)C)c1 (single isomer, unassigned) [Example 89, (-)trans-2-[[2-[[3,5-bis(1,1-dimethylethyl)phenyl]thio]cyclohexyl]oxy]acetic acid] | 576 | 3.4 | > 100 |

Compounds with a lower IC50 (cellular COX-II), results first:

| IC50 (cellular COX-II) [nM] | IC50 (COX-II) [µM] | IC50 (COX-I) [µM] | Compound |
| --- | --- | --- | --- |
| 420 | 3.7 | > 100 | CC(C)(C)c1cc(S[C@H]2CCC[C@H]2OCC(=O)O)cc(C(C)(C)C)c1 (single isomer, unassigned) [Example 84, (+)cis-2-[[2-[[3,5-bis(1,1-dimethylethyl)phenyl]thio]cyclopentyl]oxy]aceticacid] |
| 334 | 7.66 | > 100 | CC(C)(C)c1ccc(S[C@@H]2CCC[C@H]2OCC(=O)O)c(C(C)(C)C)c1 (single isomer, unassigned) [Example 93, (-)trans-2-[[2-[[2,4-bis(1,1-dimethylethyl)phenyl]thio]cyclopentyl]oxy]acetic acid] |
| 246 | 3.88 | > 100 | CC(C)(C)c1ccc(S[C@@H]2CCC[C@H]2OCC(=O)O)c(C(C)(C)C)c1 (single isomer, unassigned) [Example 92, (+)trans-2-[[2-[[2,4-bis(1,1-dimethylethyl)phenyl]thio]cyclopentyl]oxy]acetic acid] |
| 227 | 2 | 92.1 | CC(C)(C)c1ccc(S[C@H]2CCC[C@H]2OCC(=O)O)c(C(C)(C)C)c1 (single isomer, unassigned) [Example 97, (-)cis-2-[[2-[[2,4-bis(1,1-dimethylethyl)phenyl]thio]cyclopentyl]oxy]aceticacid] |
| 170 | 5.16 | > 100 | CC(C)(C)c1cc(S[C@H]2CCC[C@H]2OCC(=O)O)cc(C(C)(C)C)c1 (relative stereo) [Example 77] |
| 163 | 2.5 | – | CC(C)(C)c1cc(S[C@H]2CCC[C@H]2OCC(=O)O)cc(C(C)(C)C)c1 (single isomer, unassigned) [Example 85, (-)cis-2-[[2-[[3,5-bis(1,1-dimethylethyl)phenyl]thio]cyclopentyl]oxy]aceticacid] |
